biological target: T1, JAK3 (Homo sapiens, UniProt P52333); test: JAK3 kinobeads assay; assay type: binding; conditions: cell lysate, dot blot with JAK3 specific antibody
T1 construct: endogenous in cells
T1 sequence (P52333 1-1124): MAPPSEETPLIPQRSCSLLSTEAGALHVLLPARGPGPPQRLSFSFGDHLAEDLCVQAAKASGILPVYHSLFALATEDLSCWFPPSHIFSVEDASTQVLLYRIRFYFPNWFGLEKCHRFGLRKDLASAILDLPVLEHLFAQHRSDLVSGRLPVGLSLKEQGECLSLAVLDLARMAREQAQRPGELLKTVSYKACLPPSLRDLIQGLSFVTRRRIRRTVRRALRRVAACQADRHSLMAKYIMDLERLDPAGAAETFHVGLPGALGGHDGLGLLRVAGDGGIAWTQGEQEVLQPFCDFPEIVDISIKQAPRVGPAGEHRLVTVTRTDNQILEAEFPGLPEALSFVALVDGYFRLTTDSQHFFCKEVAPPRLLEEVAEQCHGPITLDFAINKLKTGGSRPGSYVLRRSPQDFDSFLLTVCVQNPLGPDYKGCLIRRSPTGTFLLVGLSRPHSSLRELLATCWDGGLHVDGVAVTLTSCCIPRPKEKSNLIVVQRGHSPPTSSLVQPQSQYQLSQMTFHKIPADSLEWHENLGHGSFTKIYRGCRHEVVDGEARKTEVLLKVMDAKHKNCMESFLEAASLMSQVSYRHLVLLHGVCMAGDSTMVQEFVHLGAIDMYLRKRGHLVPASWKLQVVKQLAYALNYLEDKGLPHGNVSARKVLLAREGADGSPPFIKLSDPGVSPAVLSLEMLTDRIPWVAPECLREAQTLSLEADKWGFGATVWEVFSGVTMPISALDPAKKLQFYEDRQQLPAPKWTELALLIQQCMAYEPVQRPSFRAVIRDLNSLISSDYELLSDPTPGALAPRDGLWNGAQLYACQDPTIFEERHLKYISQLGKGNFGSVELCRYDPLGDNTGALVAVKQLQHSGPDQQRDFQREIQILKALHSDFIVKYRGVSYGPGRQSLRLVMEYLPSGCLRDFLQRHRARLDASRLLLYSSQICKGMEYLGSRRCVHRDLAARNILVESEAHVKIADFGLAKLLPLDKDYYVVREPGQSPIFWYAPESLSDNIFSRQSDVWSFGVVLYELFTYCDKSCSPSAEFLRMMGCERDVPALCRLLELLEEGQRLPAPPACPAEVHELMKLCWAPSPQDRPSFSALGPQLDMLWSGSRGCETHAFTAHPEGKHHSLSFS
Description: (§1) The compounds of the present invention as described in the previous examples were tested in the ZAP-70 kinobeads assay as described (EP-A 1862802 and WO-A 2007/137867). Briefly, test compounds (at various concentrations) and the affinity matrix with the immobilized aminopyrido-pyrimidine ligand 24 are added to cell lysate aliquots and allowed to bind to the proteins in the lysate sample. After the incubation time the beads with captured proteins are separated from the lysate. Bound proteins are then eluted and the presence ZAP-70 is detected and quantified using a specific antibody in a dot blot procedure and the Odyssey infrared detection system.
Compounds were tested by the procedure described in Example 102 but using a JAK3 specific antibody (Cell Signaling Technology, Inc., Danvers, US, catalogue number 3775) instead of a ZAP70 antibody.

`COCCn1cc(Nc2ncc(Cl)c(Nc3ccccc3NS(C)(=O)=O)n2)cn1` [Example 52, N-(2-((5-chloro-2-((1-(2-methoxyethyl)-1H-pyrazol-4-yl)amino)pyrimidin-4-yl)amino)phenyl)methanesulfonamide] and `COCCn1cc(Nc2ncc(Cl)c(Nc3cccc(F)c3NS(C)(=O)=O)n2)cn1` [Example 93, N-(2-((5-chloro-2-((1-(2-methoxyethyl)-1H-pyrazol-4-yl)amino)pyrimidin-4-yl)amino)-6-fluorophenyl)methanesulfonamide] cannot be ordered by IC50: no more than 0.1 µM for the first, no more than 0.1 µM for the second.

`Cc1nn(CC(F)F)cc1Nc1ncc(Cl)c(Nc2ccccc2NS(C)(=O)=O)n1` [Example 81, N-(2-((5-chloro-2-((1-(2,2-difluoroethyl)-3-methyl-1H-pyrazol-4-yl)amino)pyrimidin-4-yl)amino)phenyl)methanesulfonamide] and `COc1nn(CC(F)F)cc1Nc1ncc(F)c(Nc2ccccc2NS(C)(=O)=O)n1` [Example 73, N-(2-((2-((1-(2,2-difluoroethyl)-3-methoxy-1H-pyrazol-4-yl)amino)-5-fluoropyrimidin-4-yl)amino)phenyl)methanesulfonamide] cannot be ordered by IC50: no more than 0.1 µM for the first, 0.1 to 1 µM for the second.

`CCCn1ccc(Nc2ncc(Cl)c(Nc3cccc(F)c3NS(C)(=O)=O)n2)n1` [Example 79, N-(2-((5-chloro-2-((1-propyl-1H-pyrazol-3-yl)amino)pyrimidin-4-yl)amino)-6-fluorophenyl)methanesulfonamide] and `CCn1nc(Nc2ncc(Cl)c(Nc3cccc(F)c3NS(C)(=O)=O)n2)cc1C` [Example 91, N-(2-((5-chloro-2-((1-ethyl-5-methyl-1H-pyrazol-3-yl)amino)pyrimidin-4-yl)amino)-6-fluorophenyl)methanesulfonamide] cannot be ordered by IC50: 0.1 to 1 µM for the first, no more than 0.1 µM for the second.

`CCS(=O)(=O)Nc1ccccc1Nc1nc(Nc2cc(C)n(C)n2)ncc1F` [Example 61, N-(2-((2-((1,5-dimethyl-1H-pyrazol-3-yl)amino)-5-fluoropyrimidin-4-yl)amino)phenyl)ethanesulfonamide] and `CCS(=O)(=O)Nc1ccccc1Nc1nc(Nc2ccn(C)n2)ncc1F` [Example 63, N-(2-((5-fluoro-2-((1-methyl-1H-pyrazol-3-yl)amino)pyrimidin-4-yl)amino)phenyl)ethanesulfonamide] fall in the same range of IC50: 1 to 10 µM for the first, 1 to 10 µM for the second.

First: CS(=O)(=O)Nc1ccccc1Nc1nc(Nc2ccon2)ncc1Br [Example 50, N-(2-((5-bromo-2-(isoxazol-3-ylamino)pyrimidin-4-yl)amino)phenyl)methanesulfonamide]
Second: Cc1cc(Nc2ncc(F)c(Nc3ccccc3NS(C)(=O)=O)n2)nn1CC(F)(F)F [Example 75, N-(2-((5-fluoro-2-((5-methyl-1-(2,2,2-trifluoroethyl)-1H-pyrazol-3-yl)amino)pyrimidin-4-yl)amino)phenyl)methanesulfonamide]
The IC50 of the first is lower: no more than 0.1 µM for the first, 1 to 10 µM for the second.

Compared with `CC(C)n1ccc(Nc2ncc(Cl)c(Nc3ccccc3NS(=O)(=O)C3CC3)n2)n1` [Example 54, N-(2-((5-chloro-2-((1-isopropyl-1H-pyrazol-3-yl)amino)pyrimidin-4-yl)amino)phenyl)cyclopropanesulfonamide], `Cc1cc(Nc2ncc(Cl)c(Nc3ccccc3NS(=O)(=O)C3CC3)n2)nn1C` [Example 55, N-(2-((5-chloro-2-((1,5-dimethyl-1H-pyrazol-3-yl)amino)pyrimidin-4-yl)amino)phenyl)cyclopropanesulfonamide] is lower in IC50: 1 to 10 µM for the first, 0.1 to 1 µM for the second.

`CCS(=O)(=O)Nc1ccccc1Nc1nc(Nc2cnn(C)c2)ncc1F` [Example 62, N-(2-((5-fluoro-2-((1-methyl-1H-pyrazol-4-yl)amino)pyrimidin-4-yl)amino)phenyl)ethanesulfonamide] and `CCS(=O)(=O)Nc1ccccc1Nc1nc(Nc2cnn(C)c2)ncc1Cl` [Example 57, N-(2-((5-chloro-2-((1-methyl-1H-pyrazol-4-yl)amino)pyrimidin-4-yl)amino)phenyl)ethanesulfonamide] cannot be ordered by IC50: 0.1 to 1 µM for the first, no more than 0.1 µM for the second.

Compared with `Cc1cc(Nc2ncc(Cl)c(Nc3ccccc3NS(C)(=O)=O)n2)nn1CC(F)(F)F` [Example 83, N-(2-((5-chloro-2-((5-methyl-1-(2,2,2-trifluoroethyl)-1H-pyrazol-3-yl)amino)pyrimidin-4-yl)amino)phenyl)methanesulfonamide], `COc1nn(CC(F)(F)F)cc1Nc1ncc(F)c(Nc2ccccc2NS(C)(=O)=O)n1` [Example 74, N-(2-((5-fluoro-2-((3-methoxy-1-(2,2,2-trifluoroethyl)-1H-pyrazol-4-yl)amino)pyrimidin-4-yl)amino)phenyl)methanesulfonamide] is higher in IC50: 0.1 to 1 µM for the first, 1 to 10 µM for the second. The first is the more potent here.

biological target: T2, ZAP-70 (Homo sapiens, UniProt P43403); test: ZAP-70 kinobeads assay; assay type: binding; conditions: cell lysate, dot blot with ZAP-70 antibody
T2 construct: endogenous in cells
T2 sequence (P43403 1-619): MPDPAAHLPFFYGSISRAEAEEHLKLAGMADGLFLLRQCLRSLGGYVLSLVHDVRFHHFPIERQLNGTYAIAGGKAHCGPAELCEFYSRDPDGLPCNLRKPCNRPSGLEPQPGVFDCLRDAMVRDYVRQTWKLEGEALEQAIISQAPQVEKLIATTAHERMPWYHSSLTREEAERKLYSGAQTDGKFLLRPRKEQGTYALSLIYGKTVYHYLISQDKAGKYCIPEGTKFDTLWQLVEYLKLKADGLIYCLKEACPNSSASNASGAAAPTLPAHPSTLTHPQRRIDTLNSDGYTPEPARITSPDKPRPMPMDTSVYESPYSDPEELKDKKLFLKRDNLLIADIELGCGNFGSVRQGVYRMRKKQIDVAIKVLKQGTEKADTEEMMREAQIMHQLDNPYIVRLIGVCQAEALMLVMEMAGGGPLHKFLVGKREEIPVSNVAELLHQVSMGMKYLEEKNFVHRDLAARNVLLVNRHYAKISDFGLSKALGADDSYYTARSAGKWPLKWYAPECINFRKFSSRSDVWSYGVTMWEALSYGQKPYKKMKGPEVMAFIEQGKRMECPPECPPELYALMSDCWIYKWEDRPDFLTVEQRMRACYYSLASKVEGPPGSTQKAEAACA
Description: as §1

First: COc1ccc(Nc2nc(Nc3cc(C)nn3C(C)C3CC3)ncc2Cl)c(NS(C)(=O)=O)c1 (stereo not drawn) [Example 88, N-(2-((5-chloro-2-((1-(1-cyclopropylethyl)-3-methyl-1H-pyrazol-5-yl)amino)pyrimidin-4-yl)amino)-5-methoxyphenyl)methanesulfonamide]
Second: COc1ccc(Nc2nc(Nc3cc(C)nn3C(C)C)ncc2Cl)c(NS(C)(=O)=O)c1 [Example 71, N-(2-((5-chloro-2-((1-isopropyl-3-methyl-1H-pyrazol-5-yl)amino)pyrimidin-4-yl)amino)-5-methoxyphenyl)methanesulfonamide]
The IC50 of the first is higher: 1 to 10 µM for the first, 0.1 to 1 µM for the second. The second is the more potent here.

`CCCn1nc(C)cc1Nc1ncc(Cl)c(Nc2ccc(OC)cc2NS(C)(=O)=O)n1` [Example 69, N-(2-((5-chloro-2-((3-methyl-1-propyl-1H-pyrazol-5-yl)amino)pyrimidin-4-yl)amino)-5-methoxyphenyl)methanesulfonamide] and `CCCCn1nc(C)cc1Nc1ncc(Cl)c(Nc2ccc(OC)cc2NS(C)(=O)=O)n1` [Example 86, N-(2-((2-((1-butyl-3-methyl-1H-pyrazol-5-yl)amino)-5-chloropyrimidin-4-yl)amino)-5-methoxyphenyl)methanesulfonamide] cannot be ordered by IC50: no more than 0.1 µM for the first, no more than 0.1 µM for the second.

`CCc1nn(C)c(Nc2ncc(Cl)c(Nc3ccc(OC)cc3NS(C)(=O)=O)n2)c1C` [Example 15, N-(2-(5-chloro-2-(3-ethyl-1,4-dimethyl-1H-pyrazol-5-ylamino)pyrimidin-4-ylamino)-5-methoxyphenyl)methanesulfonamide] and `COc1ccc(Nc2nc(Nc3c(C)noc3C)ncc2Cl)c(NS(C)(=O)=O)c1` [Example 19, N-(2-(5-chloro-2-(3,5-dimethylisoxazol-4-ylamino)pyrimidin-4-ylamino)-5-methoxyphenyl)methanesulfonamide] fall in the same range of IC50: 1 to 10 µM for the first, 1 to 10 µM for the second.

`CCCCn1nccc1Nc1ncc(Cl)c(Nc2ccc(OC)cc2NS(C)(=O)=O)n1` [Example 87, N-(2-((2-((1-butyl-1H-pyrazol-5-yl)amino)-5-chloropyrimidin-4-yl)amino)-5-methoxyphenyl)methanesulfonamide] and `COc1ccc(Nc2nc(Nc3ccnn3C(C)C)ncc2Cl)c(NS(C)(=O)=O)c1` [Example 68, N-(2-((5-chloro-2-((1-isopropyl-1H-pyrazol-5-yl)amino)pyrimidin-4-yl)amino)-5-methoxyphenyl)methanesulfonamide] fall in the same range of IC50: 0.1 to 1 µM for the first, 0.1 to 1 µM for the second.

Reference: patent publication US20120172384A1, “HETEROCYCLYLAMINOPYRIMIDINES AS KINASE INHIBITORS” (priority 2009, published 2012)
